For data set [1], the target named is Dipeptidyl peptidase 8 (Homo sapiens, UniProt Q6V1X1). The experiment in a line: Inhibition of human DPP8.
Data set [2] has as its target hERG (KCNH2) (Homo sapiens, UniProt Q12809). The experiment in a line: Displacement of [3H]dofetilide from hERG at 10 uM. The following applies: probe [3H]dofetilide, read-out: Activity.
A short description of data set [3]: Bioavailability in Sprague-Dawley rat at 5 mg/kg, po. The format is ADME, organism-based. The following applies: in vivo.
The test system of data set [4] is Rattus norvegicus. The experiment in a line: Inhibition of DPP4 in Sprague-Dawley rat at 5 mg/kg, po between 4 to 6 hrs. The format is functional. More on the design: scale not given: the % may be the effect or the level left.
In data set [5] the target is Voltage-gated inwardly rectifying potassium channel KCNH2 (Homo sapiens, UniProt Q12809). The experiment in a line: Inhibition of hERG by patch clamp assay. The data set is classed as toxicity.
Chain of Voltage-gated inwardly rectifying potassium channel KCNH2 (Q12809 whole entry): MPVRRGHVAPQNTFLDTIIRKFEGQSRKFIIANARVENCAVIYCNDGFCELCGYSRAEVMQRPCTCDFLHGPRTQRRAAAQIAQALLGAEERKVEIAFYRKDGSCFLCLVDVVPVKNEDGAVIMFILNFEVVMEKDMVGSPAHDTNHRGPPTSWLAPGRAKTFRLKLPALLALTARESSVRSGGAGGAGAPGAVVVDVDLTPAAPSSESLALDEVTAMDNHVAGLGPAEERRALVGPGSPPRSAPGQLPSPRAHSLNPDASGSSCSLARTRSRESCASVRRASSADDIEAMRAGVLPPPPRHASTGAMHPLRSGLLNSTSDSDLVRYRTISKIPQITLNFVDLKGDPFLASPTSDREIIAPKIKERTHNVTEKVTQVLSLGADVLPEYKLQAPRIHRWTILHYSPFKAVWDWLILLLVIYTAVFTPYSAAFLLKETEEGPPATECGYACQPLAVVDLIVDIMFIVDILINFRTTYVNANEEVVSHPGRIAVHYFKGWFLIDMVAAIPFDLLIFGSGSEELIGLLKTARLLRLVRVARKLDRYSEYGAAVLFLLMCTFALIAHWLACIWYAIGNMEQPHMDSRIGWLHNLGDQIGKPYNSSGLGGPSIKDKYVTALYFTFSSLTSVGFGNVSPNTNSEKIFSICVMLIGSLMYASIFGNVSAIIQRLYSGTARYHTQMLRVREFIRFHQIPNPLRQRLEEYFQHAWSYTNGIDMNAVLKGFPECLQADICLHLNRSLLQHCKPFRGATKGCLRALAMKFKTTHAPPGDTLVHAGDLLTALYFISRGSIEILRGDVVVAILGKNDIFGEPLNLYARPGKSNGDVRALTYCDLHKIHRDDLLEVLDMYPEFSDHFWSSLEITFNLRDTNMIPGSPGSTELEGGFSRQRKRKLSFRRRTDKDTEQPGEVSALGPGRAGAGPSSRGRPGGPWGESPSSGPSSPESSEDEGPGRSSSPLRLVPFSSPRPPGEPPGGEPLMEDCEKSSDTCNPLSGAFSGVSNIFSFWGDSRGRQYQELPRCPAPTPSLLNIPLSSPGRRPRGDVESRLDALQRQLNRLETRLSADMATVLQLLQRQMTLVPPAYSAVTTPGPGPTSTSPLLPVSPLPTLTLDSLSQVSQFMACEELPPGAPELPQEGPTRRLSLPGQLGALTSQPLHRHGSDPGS
A short description of data set [6]: Cmax in Sprague-Dawley rat at 5 mg/kg, po. Particulars: in vivo. The data set is classed as ADME, organism-based. Details: dose 5 mg/kg, route oral.
Data set [7] in a line: Half life in Sprague-Dawley rat at 5 mg/kg, po. The following applies: in vivo. The format is ADME, organism-based. More on the design: dose 5 mg/kg, route oral.
Data set [8] in a line: Plasma protein binding in Sprague-Dawley rat at 5 mg/kg, po. The data set is classed as ADME, organism-based. Details: dose 5 mg/kg, route oral. The following applies: read-out: PB (converted).
The test system of data set [9] is Rattus norvegicus. The experiment in a line: AUC(0 to infinity) in Sprague-Dawley rat at 5 mg/kg, po. More on the design: time infinity, dose 5 mg/kg, route oral. The following applies: in vivo. The format is ADME, organism-based, Plasma.
Data set [10] is filed under the species Rattus norvegicus. Description: Inhibition of DPP4 in Sprague-Dawley rat. The data set is classed as functional.

The structures appear in SMILES notation.

The text below walks through data of ChEMBL document CHEMBL1140588, “Design and synthesis of potent amido- and benzyl-substituted cis-3-amino-4-(2-cyanopyrrolidide)pyrrolidinyl DPP-IV inhibitors” (Bioorg Med Chem Lett, 2007).

Chain of hERG (KCNH2) (Q12809 whole entry): as above
Chain of Dipeptidyl peptidase 8 (Q6V1X1 whole entry): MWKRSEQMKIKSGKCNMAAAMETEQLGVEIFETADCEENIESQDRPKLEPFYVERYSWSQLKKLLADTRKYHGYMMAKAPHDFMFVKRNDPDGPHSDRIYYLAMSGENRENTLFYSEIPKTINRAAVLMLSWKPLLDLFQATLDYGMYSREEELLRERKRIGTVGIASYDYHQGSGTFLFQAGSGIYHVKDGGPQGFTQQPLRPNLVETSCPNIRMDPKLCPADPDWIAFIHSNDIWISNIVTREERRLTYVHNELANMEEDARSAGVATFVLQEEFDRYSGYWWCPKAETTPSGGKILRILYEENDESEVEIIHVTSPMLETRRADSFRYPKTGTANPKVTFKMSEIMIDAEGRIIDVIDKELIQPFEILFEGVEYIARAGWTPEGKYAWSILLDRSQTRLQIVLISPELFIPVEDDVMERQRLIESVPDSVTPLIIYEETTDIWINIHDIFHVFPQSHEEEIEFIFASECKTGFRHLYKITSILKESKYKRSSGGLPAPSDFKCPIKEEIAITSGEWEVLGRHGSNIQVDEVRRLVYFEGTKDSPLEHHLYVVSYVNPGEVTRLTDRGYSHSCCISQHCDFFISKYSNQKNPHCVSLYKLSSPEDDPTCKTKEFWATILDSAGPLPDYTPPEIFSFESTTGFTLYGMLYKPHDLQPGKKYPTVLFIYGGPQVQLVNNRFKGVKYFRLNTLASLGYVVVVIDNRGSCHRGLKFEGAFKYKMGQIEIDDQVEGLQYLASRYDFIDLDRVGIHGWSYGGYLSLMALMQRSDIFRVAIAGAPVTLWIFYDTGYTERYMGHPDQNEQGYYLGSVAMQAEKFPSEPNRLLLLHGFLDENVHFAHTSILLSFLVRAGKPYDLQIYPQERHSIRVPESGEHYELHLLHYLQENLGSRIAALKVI

With `N#Cc1ccc(CN2C[C@H](N)[C@H](C(=O)N3CCC[C@H]3C#N)C2)cc1`, the IC50 in [1] was 0.56 µM. Further, the inhibition at 10 µM in data set [2] amounted to 47%.

`Cn1nccc1-c1ccc(CN2C[C@H](N)[C@H](C(=O)N3CCC[C@H]3C#N)C2)cc1` displayed an IC50 in [1] of 0.148 µM. Besides, in data set [2], the inhibition at 10 µM is 36%.

In turn, `Cc1ncn(-c2ccc(CN3C[C@H](N)[C@H](C(=O)N4CCC[C@H]4C#N)C3)cc2)n1` had a bioavailability in [3] of 36%. Further, in data set [1], the IC50 stood at 0.858 µM. For the same molecule, the Activity in data set [4] stood at 51%. Also, in data set [2], the inhibition at 10 µM was found to be 4%.

With `N#C[C@@H]1CCCN1C(=O)[C@@H]1CN(Cc2cnc3ccccc3c2)C[C@@H]1N`, in [1], the IC50 is 3.29 µM. In addition, the inhibition at 10 µM in data set [2] is 36%.

In the case of `N[C@H]1CN(C(=O)c2cc3ccccc3s2)C[C@H]1C(=O)N1CCCC1`, the inhibition at 10 µM in data set [2] was 5%.

Take `N[C@H]1CN(C(=O)c2ccc3ccccc3c2)C[C@H]1C(=O)N1CCCC1`: the inhibition at 10 µM in data set [2] stood at 4%.

In [1], `N#C[C@@H]1CCCN1C(=O)[C@@H]1CN(Cc2ccc(-c3cc[nH]n3)cc2)C[C@@H]1N` came in with an IC50 of 0.326 µM. Moreover, the inhibition at 10 µM in data set [2] came out at 65%.

Consider `Cn1cc(-c2ccc(CN3C[C@H](N)[C@H](C(=O)N4CCC[C@H]4C#N)C3)cc2)cn1`, for which, in data set [1], the midpoint of inhibition, the IC50, lay at 0.363 µM. Moreover, the inhibition at 10 µM in data set [2] stood at 71%.

Regarding `N#C[C@@H]1CCCN1C(=O)[C@@H]1CN(Cc2ccc(-c3csnn3)cc2)C[C@@H]1N`, the IC50 in [1] amounted to 0.19 µM. Also, the inhibition at 10 µM in [2] came to 91%.

For the molecule `N#Cc1ccc2c(c1)CCC2N1C[C@H](N)[C@H](C(=O)N2CCC[C@H]2C#N)C1` (some centres undefined), in data set [2], the inhibition at 10 µM was found to be 88%.

As to `N[C@H]1CN(C(=O)c2ccc(-n3cnnn3)cc2)C[C@H]1C(=O)N1CCCC1`, the inhibition at 10 µM in data set [2] stood at 15%.

For the molecule `CC(c1ccc(C#N)cc1)N1C[C@H](N)[C@H](C(=O)N2CCC[C@H]2C#N)C1` (some centres undefined), the IC50 in data set [5] stood at 10 µM; in data set [1], 1.04 µM. Further, the inhibition at 10 µM in data set [2] stood at 18%.

Take `N[C@H]1CN(C(=O)c2ccc3ncccc3c2)C[C@H]1C(=O)N1CCCC1`: in data set [2], the inhibition at 10 µM was 19%.

With `N[C@H]1CN(C(=O)c2cc3ccccc3cn2)C[C@H]1C(=O)N1CCCC1`, in [2], the inhibition at 10 µM stood at 0.5%.

Consider `N[C@H]1CN(C(=O)c2cnc3ccccc3c2)C[C@H]1C(=O)N1CCCC1`, for which the inhibition at 10 µM in [2] stood at 9%.

`N[C@H]1CN(Cc2ccc(-n3cnnn3)cc2)C[C@H]1C(=O)N1CCCC1`: the inhibition at 10 µM in data set [2] was 43%.

For the molecule `N#Cc1cc(CN2C[C@H](N)[C@H](C(=O)N3CCCC3)C2)ccc1F`, the inhibition at 10 µM in [2] stood at 9%.

On to `N[C@H]1CN(Cc2ccc(-c3csnn3)cc2)C[C@H]1C(=O)N1CCCC1`, for which the inhibition at 10 µM in data set [2] amounted to 84%.

As to `Cc1cc(-n2cncn2)ccc1CN1C[C@H](N)[C@H](C(=O)N2CCC[C@H]2C#N)C1`, the inhibition at 10 µM in data set [2] is 62%.

On to `N[C@H]1CN(Cc2cnc3ccccc3c2)C[C@H]1C(=O)N1CCCC1`, for which, in data set [2], the inhibition at 10 µM is 32%.

In the case of `N#C[C@@H]1CCCN1C(=O)[C@@H]1CN(Cc2ccc(-n3cncn3)cc2)C[C@@H]1N`, the IC50 in data set [5] was found to be 1.8 µM; in data set [1], 0.461 µM. Further, the inhibition at 10 µM in data set [2] was 40%.

Consider `CC(c1ccc([N+](=O)[O-])cc1)N1C[C@H](N)[C@H](C(=O)N2CCCC2)C1` (some centres undefined), for which the inhibition at 10 µM in [2] worked out at 13%.

As for `Cc1nnc(-c2ccc(CN3C[C@H](N)[C@H](C(=O)N4CCC[C@H]4C#N)C3)cc2)o1`, the IC50 is 165 µM in data set [5] and 0.704 µM in data set [1]. In addition, in data set [2], the inhibition at 10 µM turned out to be 4%.

As for `Cc1cc(CN2C[C@H](N)[C@H](C(=O)N3CCC[C@H]3C#N)C2)cc(C)c1C#N`, the IC50 in data set [5] came to 28.9 µM. For the same molecule, the inhibition at 10 µM in [2] was found to be 21%.

For `N#C[C@@H]1CCCN1C(=O)[C@@H]1CN(Cc2ccc(-n3nccn3)cc2)C[C@@H]1N`, in [1], the IC50 was determined as 0.247 µM. Besides, the inhibition at 10 µM in data set [2] stood at 49%.

For the molecule `CC(c1ccc(-n2cncn2)cc1)N1C[C@H](N)[C@H](C(=O)N2CCC[C@H]2C#N)C1` (some centres undefined), the bioavailability in [3] turned out to be 30.6%. The molecule also displayed a Cmax in data set [6] of 1400 ng/mL. Further, in [7], the half-life is 4.3 h. Moreover, in data set [8], the fraction unbound was 0.77. Further, the AUC in data set [9] amounted to 7703 ng·h/mL. In data set [2], the inhibition at 10 µM worked out at 7%. For the same molecule, the Inhibition in [10] turned out to be 86%.

Take `N#C[C@@H]1CCCN1C(=O)[C@@H]1CN(C2CCOc3ccccc32)C[C@@H]1N` (some centres undefined): the inhibition at 10 µM in [2] is 7%.

`N[C@H]1CN(C(=O)c2ccc(-n3cncn3)cc2)C[C@H]1C(=O)N1CCCC1`: the inhibition at 10 µM in data set [2] worked out at 14%.

For `N[C@H]1CN(C(=O)c2cc3cc(Cl)ccc3o2)C[C@H]1C(=O)N1CCCC1`, the inhibition at 10 µM in data set [2] stood at 14%.

In the case of `Cc1cc(CN2C[C@H](N)[C@H](C(=O)N3CCC[C@H]3C#N)C2)ccc1-n1cncn1`, in data set [2], the inhibition at 10 µM is 17%.

For the molecule `N[C@H]1CN(C(=O)c2cnc3ccccc3n2)C[C@H]1C(=O)N1CCCC1`, in [5], the IC50 was over 300 µM. Further, in [2], the inhibition at 10 µM was determined as 0.241%.

In the case of `N[C@H]1CN(Cc2ccc(F)c(F)c2)C[C@H]1C(=O)N1CCCC1`, the inhibition at 10 µM in [2] was 19%.

Turning to `CCc1cc(CN2C[C@H](N)[C@H](C(=O)N3CCC[C@H]3C#N)C2)cc(CC)c1C#N`, the inhibition at 10 µM in data set [2] was 3%.

As to `N#Cc1cc(CN2C[C@H](N)[C@H](C(=O)N3CCC[C@H]3C#N)C2)ccc1F`, it took 0.922 µM to reach half-maximal inhibition in [1] (IC50). Also, in data set [2], the inhibition at 10 µM came out at 10%.
